Measured values taken from paper PMC6225253, “Chemical Constituents and Antidepressant-Like Effects in Ovariectomized Mice of the Ethanol Extract of Alternanthera philoxeroides” (Molecules : A Journal of Synthetic Chemistry and Natural …, 2018).

Molecular target: T1, recombinant human MAO-B (Homo sapiens, UniProt P27338)
T1 construct: purchased Sigma-Aldrich
T1 sequence (P27338 1-520): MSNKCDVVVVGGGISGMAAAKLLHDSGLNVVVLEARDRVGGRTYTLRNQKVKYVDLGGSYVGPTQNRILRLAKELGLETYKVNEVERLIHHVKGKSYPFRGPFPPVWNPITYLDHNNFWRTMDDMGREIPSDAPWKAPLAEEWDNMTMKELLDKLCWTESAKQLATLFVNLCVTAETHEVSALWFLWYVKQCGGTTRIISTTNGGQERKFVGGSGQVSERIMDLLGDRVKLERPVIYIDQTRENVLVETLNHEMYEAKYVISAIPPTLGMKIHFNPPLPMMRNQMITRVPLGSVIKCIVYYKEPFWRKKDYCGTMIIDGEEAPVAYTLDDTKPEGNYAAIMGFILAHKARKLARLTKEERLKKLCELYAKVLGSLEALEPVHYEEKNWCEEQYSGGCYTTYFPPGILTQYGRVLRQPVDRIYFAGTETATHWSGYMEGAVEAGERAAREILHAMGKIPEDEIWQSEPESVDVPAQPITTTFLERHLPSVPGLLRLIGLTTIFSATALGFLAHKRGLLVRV
Experiment: Human MAO-B inhibitory assay (kynuramine, fluorescence of 4-hydroxyquinoline)
Format: biochemical
Conditions: based on Si
Procedure: (§1) The crude ethanol extract of A. philoxeroides, together with its constituents, alternanthin (1a), althernanthin B (1b), torosaflavone E (3a), dimethyltorosaflavone D (3b) and chrysoeriol 7-rhamnoside (5) were tested for their inhibitory activity on MAO-A and MAO-B, using the recombinant human MAO-A and MAO-B. The rates of MAO catalysis was determined by measuring the production of 4-hydroxyquinoline by fluorescence spectrophotometry. […] For this purpose, Km values for the oxidation of kynuramine by MAO-A and MAO-B were used from previous studies, i.e., 16.1 μM for human MAO-A and 22.7 μM for human MAO-B [15].
(§2) The MAOs inhibitory activity assay of the A. philoxeroides extract and some of its flavonoid constituents, using recombinant human MAO-A and MAO-B (Sigma-Aldrich, St. Louis, MO, USA) as enzyme sources, was performed according to the method described by Manley-King et al.. Briefly, the crude extract 100 mg was dissolved in 400 µL DMSO to prepare 250 mg/mL as a stock solution. Serial dilution of test samples (20 µL) for each concentration was used to test the activity. For 1a, 1b, 3a, 3b and 5, a stock solution of 1000 μM in DMSO was prepared and a serial dilution of the test sample (20 μL) of each concentration was used to test the activity. Concentration of MAOs was 0.0075 mg/mL for MAO-A inhibitor test, 9 µL of kynuramine (Sigma-Aldrich, St. Louis, MO, USA) was mixed with 469.5 µL of potassium phosphate buffer (pH 7.4). For MAO-B inhibitor test, 6 µL of kynuramine was mixed with 472.5 µL of potassium phosphate buffer (pH 7.4). Then 1.5 µL of the enzymes were added before incubation at 37 °C for 20 min. The reaction was stopped by adding 400 µL of 2N NaOH and 1000 µL of water. Measurement of 4-hydroxyquinoline (Sigma-Aldrich, St. Louis, MO, USA) was carried out by fluorescence spectrophotometry with the excitation wavelength at 310 nm and the emission wavelength at 400 nm. […] Data were analyzed by Prism 5 software package (GraphPad Software, version 5, San Diego, CA, USA). The IC50 values were converted to the corresponding Ki values according to the equation Ki = IC50/(1+[S]/Km).

Row | Isoform selectivity from the selectivity index, MAO-B | Compound
1 | partially selective for MAO-B isoform | COc1cc(-c2cc(=O)c3c(O)c(/C=C/C(=O)O)c(O)cc3o2)ccc1O [Compound 3a, torosaflavone E]
2 | partially selective for MAO-B isoform | C[C@H]1O[C@@H](c2c(O)cc3oc(-c4ccc(O)c(O)c4)cc(=O)c3c2O)C[C@H](O)[C@H]1O [Compound 1b, alternanthin B]
3 | partially selective for MAO-B isoform | O=C(O)/C=C/c1c(O)cc2oc(-c3ccc(O)c(O)c3)cc(=O)c2c1O [Compound 3b, demethyltorosaflavone D]
4 | partially selective for MAO-B isoform | COc1cc(-c2cc(=O)c3c(O)cc(O[C@@H]4O[C@@H](C)[C@H](O)[C@@H](O)[C@H]4O)cc3o2)ccc1O [Compound 5, chrysoeriol 7-O-rhamnoside]

Same assay, conditions: from IC50 by Cheng–Prusoff, Km 22.7 μM

Row | Ki | Compound
5 | 0.29 µM | COc1cc(-c2cc(=O)c3c(O)c(/C=C/C(=O)O)c(O)cc3o2)ccc1O [Compound 3a, torosaflavone E]
6 | 0.00026 µM | COc1cc(-c2cc(=O)c3c(O)c([C@H]4C[C@H](O)[C@@H](O)[C@@H](C)O4)c(O)cc3o2)ccc1O [Compound 1a, altheranthin]
7 | 0.0001 µM | C[C@H]1O[C@@H](c2c(O)cc3oc(-c4ccc(O)c(O)c4)cc(=O)c3c2O)C[C@H](O)[C@H]1O [Compound 1b, alternanthin B]
8 | 0.0557 µM | O=C(O)/C=C/c1c(O)cc2oc(-c3ccc(O)c(O)c3)cc(=O)c2c1O [Compound 3b, demethyltorosaflavone D]
9 | 0.234 µM | COc1cc(-c2cc(=O)c3c(O)cc(O[C@@H]4O[C@@H](C)[C@H](O)[C@@H](O)[C@H]4O)cc3o2)ccc1O [Compound 5, chrysoeriol 7-O-rhamnoside]

Same assay, conditions: ratio of Ki values; MAO-B

Row | Si MAO-B (selectivity index between MAO-A and MAO-B) | Compound
10 | 0.0601 | COc1cc(-c2cc(=O)c3c(O)c(/C=C/C(=O)O)c(O)cc3o2)ccc1O [Compound 3a, torosaflavone E]
11 | 2.1364 | COc1cc(-c2cc(=O)c3c(O)c([C@H]4C[C@H](O)[C@@H](O)[C@@H](C)O4)c(O)cc3o2)ccc1O [Compound 1a, altheranthin]
12 | 0.1764 | C[C@H]1O[C@@H](c2c(O)cc3oc(-c4ccc(O)c(O)c4)cc(=O)c3c2O)C[C@H](O)[C@H]1O [Compound 1b, alternanthin B]
13 | 0.4193 | O=C(O)/C=C/c1c(O)cc2oc(-c3ccc(O)c(O)c3)cc(=O)c2c1O [Compound 3b, demethyltorosaflavone D]
14 | 0.2915 | COc1cc(-c2cc(=O)c3c(O)cc(O[C@@H]4O[C@@H](C)[C@H](O)[C@@H](O)[C@H]4O)cc3o2)ccc1O [Compound 5, chrysoeriol 7-O-rhamnoside]

Same assay, conditions: recombinant human MAO-B, kynuramine, pH 7.4, 37 °C, 20 min; mean ± SD

Row | IC50 | Compound
15 | 0.675 ± 0.46 µM | COc1cc(-c2cc(=O)c3c(O)c(/C=C/C(=O)O)c(O)cc3o2)ccc1O [Compound 3a, torosaflavone E]
16 | 0.129 µM | O=C(O)/C=C/c1c(O)cc2oc(-c3ccc(O)c(O)c3)cc(=O)c2c1O [Compound 3b, demethyltorosaflavone D]
17 | 0.544 ± 0.33 µM | COc1cc(-c2cc(=O)c3c(O)cc(O[C@@H]4O[C@@H](C)[C@H](O)[C@@H](O)[C@H]4O)cc3o2)ccc1O [Compound 5, chrysoeriol 7-O-rhamnoside]

System: not given
Experiment: not given
Conditions: not given

Row | melting point | Compound
18 | 250 to 252 °C | COc1cc(-c2cc(=O)c3c(O)c(/C=C/C(=O)O)c(O)cc3o2)ccc1O [Compound 3a, torosaflavone E]

Molecular target: T2, recombinant human MAO-A (Homo sapiens, UniProt P21397)
T2 construct: purchased Sigma-Aldrich
T2 sequence (P21397 1-527): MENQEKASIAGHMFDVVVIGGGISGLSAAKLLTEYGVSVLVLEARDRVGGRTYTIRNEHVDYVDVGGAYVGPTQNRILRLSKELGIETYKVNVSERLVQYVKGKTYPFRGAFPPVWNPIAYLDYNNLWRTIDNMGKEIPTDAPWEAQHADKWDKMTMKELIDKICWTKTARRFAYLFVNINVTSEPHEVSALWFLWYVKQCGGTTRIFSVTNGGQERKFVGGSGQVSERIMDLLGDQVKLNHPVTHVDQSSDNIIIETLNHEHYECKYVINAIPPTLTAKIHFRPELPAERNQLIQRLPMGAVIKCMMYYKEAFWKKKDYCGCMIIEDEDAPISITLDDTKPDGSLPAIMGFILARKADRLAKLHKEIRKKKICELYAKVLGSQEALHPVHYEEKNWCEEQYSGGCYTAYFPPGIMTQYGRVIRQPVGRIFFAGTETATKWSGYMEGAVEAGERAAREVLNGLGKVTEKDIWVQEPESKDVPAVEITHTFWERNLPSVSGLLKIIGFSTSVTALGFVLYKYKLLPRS
Experiment: Human MAO-A inhibitory assay (kynuramine, fluorescence of 4-hydroxyquinoline)
Format: biochemical
Conditions: based on Si
Procedure: as §1, §2

Row | Isoform selectivity from the selectivity index, MAO-A | Compound
19 | partially selective for MAO-A isoform | COc1cc(-c2cc(=O)c3c(O)c([C@H]4C[C@H](O)[C@@H](O)[C@@H](C)O4)c(O)cc3o2)ccc1O [Compound 1a, altheranthin]

Same assay, conditions: from IC50 by Cheng–Prusoff, Km 16.1 μM

Row | Ki | Compound
20 | 4.84 µM | COc1cc(-c2cc(=O)c3c(O)c(/C=C/C(=O)O)c(O)cc3o2)ccc1O [Compound 3a, torosaflavone E]
21 | 0.00012 µM | COc1cc(-c2cc(=O)c3c(O)c([C@H]4C[C@H](O)[C@@H](O)[C@@H](C)O4)c(O)cc3o2)ccc1O [Compound 1a, altheranthin]
22 | 0.00054 µM | C[C@H]1O[C@@H](c2c(O)cc3oc(-c4ccc(O)c(O)c4)cc(=O)c3c2O)C[C@H](O)[C@H]1O [Compound 1b, alternanthin B]
23 | 0.133 µM | O=C(O)/C=C/c1c(O)cc2oc(-c3ccc(O)c(O)c3)cc(=O)c2c1O [Compound 3b, demethyltorosaflavone D]
24 | 0.804 µM | COc1cc(-c2cc(=O)c3c(O)cc(O[C@@H]4O[C@@H](C)[C@H](O)[C@@H](O)[C@H]4O)cc3o2)ccc1O [Compound 5, chrysoeriol 7-O-rhamnoside]

Same assay, conditions: ratio of Ki values; MAO-A

Row | Si MAO-A (selectivity index between MAO-A and MAO-B) | Compound
25 | 16.6534 | COc1cc(-c2cc(=O)c3c(O)c(/C=C/C(=O)O)c(O)cc3o2)ccc1O [Compound 3a, torosaflavone E]
26 | 0.4681 | COc1cc(-c2cc(=O)c3c(O)c([C@H]4C[C@H](O)[C@@H](O)[C@@H](C)O4)c(O)cc3o2)ccc1O [Compound 1a, altheranthin]
27 | 5.6681 | C[C@H]1O[C@@H](c2c(O)cc3oc(-c4ccc(O)c(O)c4)cc(=O)c3c2O)C[C@H](O)[C@H]1O [Compound 1b, alternanthin B]
28 | 2.3850 | O=C(O)/C=C/c1c(O)cc2oc(-c3ccc(O)c(O)c3)cc(=O)c2c1O [Compound 3b, demethyltorosaflavone D]
29 | 3.4303 | COc1cc(-c2cc(=O)c3c(O)cc(O[C@@H]4O[C@@H](C)[C@H](O)[C@@H](O)[C@H]4O)cc3o2)ccc1O [Compound 5, chrysoeriol 7-O-rhamnoside]

Same assay, conditions: recombinant human MAO-A, kynuramine, pH 7.4, 37 °C, 20 min; mean ± SD

Row | IC50 | Compound
30 | 18.4 ± 1.47 µM | COc1cc(-c2cc(=O)c3c(O)c(/C=C/C(=O)O)c(O)cc3o2)ccc1O [Compound 3a, torosaflavone E]
31 | 0.00206 µM | C[C@H]1O[C@@H](c2c(O)cc3oc(-c4ccc(O)c(O)c4)cc(=O)c3c2O)C[C@H](O)[C@H]1O [Compound 1b, alternanthin B]
32 | 3.05 ± 0.35 µM | COc1cc(-c2cc(=O)c3c(O)cc(O[C@@H]4O[C@@H](C)[C@H](O)[C@@H](O)[C@H]4O)cc3o2)ccc1O [Compound 5, chrysoeriol 7-O-rhamnoside]
